Where a SMILES comes first, the peptide text is derived from it. Where no end group is shown, it is not given here. [ ]: non-standard residue; d: D form.

In one assay the test system is MRSA (NCTC 12493). The format is cell-based, methicillin-resistant Staphylococcus aureus. The conditions noted are these: NCTC 12493, 24 h. The source says:
(§1) Seven microorganism strains were used to preliminarily evaluate the antimicrobial activity of PSTO2 and its analogues, including Staphylococcus aureus (S. aureus) (ATCC® 6538), methicillin-resistant Staphylococcus aureus (MRSA) (NCTC® 12493), Enterococcus faecalis (E. faecalis) (NCTC® 12697), E. coli (ATCC® 8739), Klebsiella pneumonia (K. pneumonia) (ATCC® 43816), Pseudomonas aeruginosa (P. aeruginosa) (ATCC® CRM 9027), Acinetobacter baumanni (A. baumanni) (BAA® 747), and Candida albicans (C. albicans) (ATCC® 10231). In this study, the strains were cultured in Mueller–Hinton broth (MHB), nutrient broth (NB), and yeast–peptone–dextrose broth (YPD-B) correspondingly at 37 °C, with shaking at 120 rpm. Each peptide was dissolved from 128 μM to 1 μM and mixed with the bacterium at 5 × 10^5 CFU/mL. In this process, bacteria with culture medium were used as the growth control group; PBS was set up as the vehicle control group; sterile culture medium was used as the blank control group; and Norfloxacin at a concentration of 2 mg/mL and amphotericin B at a concentration of 1 mg/mL were set up as the positive control group for bacteria and fungi, respectively.
(§2) After being incubated for 24 h, a Synergy HT plate reader (Bio-Tek, Shoreline, WA, USA) was used to detect the absorbance of each well in the 96-well plate at λ = 550 nm. The concentration at which no visible turbidity could be recorded was the MIC value. Beginning from the MIC value, 10 µL of solution in each clear well was dropped on the sterile agar plates. The plate was checked the next day for colony formation, and the lowest concentration at which no colony growing was recorded as an MBC value.

The subject of the next assay is A. baumannii (BAA 747). The format is cell-based, Acinetobacter baumanni. Particulars: BAA 747, 24 h.
Source text: as §1, §2

The subject of assay [1] is S. aureus (ATCC 6538) biofilm. The format is cell-based, Staphylococcus aureus. The conditions noted are these: ATCC 6538, 24 h. The method, then:
(§3) To test the anti-biofilm ability of PSTO2 and its analogues, three types of microorganisms (S. aureus ATCC® 6538, E. coli ATCC® 8739, and MRSA NCTC® 12493) were chosen. Tryptic soy broth (TSB) and Lysogeny broth (LB) were used to culture microorganisms. The peptide was dissolved in an autoclaved PBS solution and diluted into concentrations ranging from 51,200 µM to 100 µM. One µL of peptide solution of each concentration was added into a 96-well plate with 100 µL bacterium at 5 × 10^5 CFU/mL. The plate was incubated at 37 °C for 24 h, with shaking at 200 rpm. After overnight incubation, the planktonic bacteria were washed up. Then, 100 µL of methanol was used to fix the biofilms onto the bottom, and 100 µL of 0.1% crystal violet solution (Sigma-Aldrich, Gillingham, UK) was added to each well to stain the biofilms. After drying, 160 µL of acetic acid (30% in deionised water, Sigma-Aldrich, UK) was added to each well to dissolve the shaded parts. The absorbance was detected with the Synergy HT plate reader at λ = 595 nm.
(§4) For the MBEC assay, 100 µL of the bacterium of 5 × 10^5 CFU/mL was transferred into an empty 96-well plate, and the plate was incubated at 37 °C for 24 h to obtain the biofilms primarily. Then, the peptide solution from 512 µM to 1 µM was transferred into a corresponding well, followed by 24 h incubation at 37 °C, with shaking at 200 rpm. After this, the plate was handled using the identical method to the plate in the MBIC assay, and the absorbance of each well was detected with the Synergy HT plate reader at λ = 595 nm. The minimum concentration at which the peptide can eradicate the existing biofilm was recorded as the MBEC value.

The test system of assay [2] is MRSA (ATCC 12493) biofilm. The format is cell-based, methicillin-resistant Staphylococcus aureus. Particulars: ATCC 12493, 24 h. The procedure: as §3, §4
The subject of assay [3] is E. coli (ATCC 8739) biofilm. The format is cell-based, Escherichia coli. The conditions noted are these: ATCC 8739, 24 h. The method, then:
as §3, §4

The test system of a further assay is MCF-7. The format is cell-based, human. The conditions noted are these: 24 h. The procedure: (§5) The percentage of cancer cell survival after being treated with peptides was assessed with 3-(4,5-dimethylthiazol-2-yl-)-2,5-diphenyltetrazolium bromide (MTT). The principle is the reduction process of the yellow tetrazolium to DMSO-soluble formazan crystals caused by the metabolic capability of living cells. All the cancerous and normal cells were obtained from the American Type Culture Collection (Rockville, VA, USA). Human lung cancer NCI-H838 and NCI-H460 were cultured in Roswell Park Memorial Institute (RPMI)-1640 medium (Gibco, Paisley, UK) and mixed with 10% (v/v) fetal bovine serum (FBS) (Gibco, Campinas, Brazil) and 1% penicillin–streptomycin (Gibco, Grand Island, NY, USA) 89/10/1 v/v/v). U251MG and MCF-7 were cultured in Dulbecco’s Modified Eagle medium (DMEM) (Gibco, Paisley, UK) and mixed with 10% FBS and 1% penicillin–streptomycin. HCT 116 was cultured in McCoy’s 5A (modified) medium (Gibco, Paisley, UK) and mixed with 10% FBS and 1% penicillin–streptomycin. MRC-5 and HaCat were cultured in Minimum Essential Medium (MEM) (Gibco, Paisley, UK) and mixed with 10% FBS and 1% penicillin–streptomycin. Cells were cultured and seeded in a 96-well plate at a density of 8000 cells/well with the corresponding medium and incubated for 24 h at 37 °C with 5% CO2. After 24 h of incubation, the cells were starved with a serum-free medium for 4 h at 37 °C. Then, the cells were incubated with different concentrations of peptide solution in a serum-free medium from 1 nM to 100 µM at 37 °C for 24 h. Meanwhile, triton X-100 (0.1%) (Sigma-Aldrich, St. Louis, MO, USA) and PBS were chosen as positive and negative controls. After 10 µL of MTT (5 mg/mL) was added to each well away from light and incubated at 37 °C for 2 h, the formazan generated by mitochondria was dissolved with DMSO. The absorbance was detected at a wavelength of 570 nm by a Synergy HT plate reader (Bio-Tek, Shoreline, WA, USA).

Another assay relates to NCI-H460. The format is cell-based, human. Particulars: 24 h. The method, then: as §5
Another assay concerns NCI-H838. The format is cell-based, human. Particulars: 24 h. The procedure:
as §5

The test system of the next assay is U251MG. The format is cell-based, human. Particulars: 24 h. The method, then:
as §5

Take FLSLIPKAIKAVSALAKKL-NH2 [SR]: the MBC with MRSA (NCTC 12493) is 2 µM; in the assay on A. baumannii (BAA 747), 4/4 μM. In addition, the MIC in the assay on MRSA (NCTC 12493) came out at 2 µM. The MBEC in assay [1] was 16 µM; in assay [2], 16 µM; in assay [3], 16/16 μM. Besides, the MBIC in assay [3] is 16/16 μM. Moreover, the IC50 in the assay with MCF-7 is 6.05 µM; with NCI-H460, 3.07 µM; in the assay on NCI-H838, 2.88 µM; with U251MG, 9.65 µM.
Consider `CC[C@H](C)[C@H](NC(=O)[C@H](C)NC(=O)[C@@H](CCCCN)NC(=O)[C@@H]1CCCN1C(=O)[C@@H](NC(=O)[C@H](CC(C)C)NC(=O)[C@H](CO)NC(=O)[C@H](CC(C)C)NC(=O)[C@@H](N)Cc1ccccc1)[C@@H](C)CC)C(=O)N[C@@H](CCCCN)C(=O)N[C@@H](C)C(=O)N[C@H](C(=O)N[C@@H](CO)C(=O)N[C@@H](C)C(=O)N[C@@H](CC(C)C)C(=O)N[C@@H](C)C(=O)N[C@@H](CCCCN)C(=O)N[C@@H](CCCCN)C(=O)N[C@@H](CC(C)C)C(N)=O)C(C)C` [SRD7] (H-FLSLIP[dK]AIKAVSALAKKL-NH2), for which the results for the MBC in the assay with MRSA (NCTC 12493) and with A. baumannii (BAA 747) were 2 µM and 16/16 μM, respectively. Also, the MIC in the assay on MRSA (NCTC 12493) is 1 µM. The MBEC in [1] is 32 µM; in assay [2], 16 µM; in [3], 64 µM. The MBIC in assay [1] stood at 2 µM; in assay [2] it was 4 µM; in assay [3] it was 32 µM. Besides, the IC50 in the assay with MCF-7 stood at 15.2 µM; with NCI-H460 it was 2.31 µM; in the assay with NCI-H838, 3.32 µM; in the assay with U251MG it was 13.9 µM.
FLSLIPKAIKAVKALAKKL-NH2 [SR2]: the values for the MBC in the assay with MRSA (NCTC 12493) and in the assay with A. baumannii (BAA 747) were 2 µM and 2/2 μM, respectively. Further, in the assay with MRSA (NCTC 12493), the MIC came to 2 µM. Also, the MBEC in assay [1], in assay [2] and in [3] was 16 µM throughout. The MBIC is 2 µM in assay [1] and 8 µM in assay [3]. The IC50 in the assay on MCF-7 was found to be 7.83 µM; with NCI-H460 it was 5.92 µM; in the assay on NCI-H838, 3.13 µM; in the assay on U251MG it was 6.72 µM.
On to `CC[C@H](C)[C@H](NC(=O)[C@H](C)NC(=O)[C@@H](CCCCN)NC(=O)[C@@H]1CCCN1C(=O)[C@@H](NC(=O)[C@H](CC(C)C)NC(=O)[C@H](CO)NC(=O)[C@H](CC(C)C)NC(=O)[C@@H](N)Cc1ccccc1)[C@@H](C)CC)C(=O)N[C@@H](CCCCN)C(=O)N[C@@H](C)C(=O)N[C@H](C(=O)N[C@@H](CCCCN)C(=O)N[C@@H](C)C(=O)N[C@@H](CC(C)C)C(=O)N[C@@H](C)C(=O)N[C@@H](CCCCN)C(=O)N[C@H](CCCCN)C(=O)N[C@@H](CC(C)C)C(N)=O)C(C)C` [SR2D10] (H-FLSLIP[dK]AIKAVKALAK[dK]L-NH2), for which the MBC in the assay on MRSA (NCTC 12493) is reported as 1/1 μM; with A. baumannii (BAA 747), 16/16 μM. In addition, the MIC in the assay on A. baumannii (BAA 747) was 16/16 μM. In addition, the figures for the MBEC in [1], in assay [2] and in [3] were 32 µM, 32 µM and 64 µM, respectively. Also, the MBIC in assay [1] amounted to 4 µM; in assay [2], 16 µM; in [3], 32 µM. Besides, the IC50 with MCF-7 amounted to 26.4 µM; with NCI-H460, 7.7 µM; in the assay with NCI-H838, 9.49 µM; in the assay on U251MG it was 16.1 µM.

A word on the MBC: it is the lowest tested concentration that kills the bacteria rather than only halting them. The MIC is the smallest concentration in the dilution series that meets the test's criterion for growth inhibition. Usually IC50 stands for the midpoint of a concentration-inhibition curve.

The record behind these values is paper PMC11360180, “Enhancement of Antimicrobial Function by L/D-Lysine Substitution on a Novel Broad-Spectrum Antimicrobial Peptide, Phylloseptin-TO2: A Structure-Related Activity Research Study” (Pharmaceutics, 2024).
